Results as given in patent US6740635B2, “Antiviral linear polymers” (Biomolecular Research Institute Ltd., priority 1996, dated 2004).
Values after ≈ are worked out from the molar mass of the structure shown. Where two headings read alike, the source gives them in different places.

Key:
[1] = tested on: HSV-2; experiment: HSV-2 Plaque Reduction; details: Human alphaherpesvirus 2, HFF, in Homo sapiens, read-out: EC50, HSV-2 Plaque Reduction
[2] = tested on: HSV-2; experiment: HSV-2 CPE Inhibition; details: Human alphaherpesvirus 2, HFF, in Homo sapiens, read-out: EC50, HSV-2 CPE Inhibition
[3] = tested on: VZV; experiment: VZV viral count or plaque reduction; format: cell-based, Varicella Zoster Virus; details: Human alphaherpesvirus 3
[4] = tested on: HSV-1; experiment: HSV-1 Plaque Reduction; details: Human alphaherpesvirus 1, HFF, in Homo sapiens, read-out: EC50, HSV-1 Plaque Reduction
[5] = tested on: HSV-1; experiment: HSV-1 CPE Inhibition; details: Human alphaherpesvirus 1, HFF, in Homo sapiens, read-out: EC50, HSV-1 CPE Inhibition
[6] = tested on: HIV 1 IIIB; experiment: microbe, parasite or virus in culture; format: cell-based, Human Immunodeficiency Virus type 1; details: Human immunodeficiency virus 1, IIIB
[7] = in vitro
[8] = tested on: MCMV; experiment: MCMV Plaque Reduction; details: Mus musculus, MEF, read-out: EC50, MCMV Plaque Reduction
[9] = tested on: Cytomegalovirus (Davis strain); experiment: HCMV Plaque Reduction; details: Human betaherpesvirus 5, HFF, in Homo sapiens, read-out: EC50, HCMV Plaque Reduction
[10] = in vitro; details: mouse
[11] = tested on: Cytomegalovirus (Davis strain); experiment: HCMV CPE Inhibition; details: Human betaherpesvirus 5, HFF, in Homo sapiens, read-out: EC50, HCMV CPE Inhibition
[12] = tested on: RSV; A2; experiment: RSV A2 Neutral Red cell count; format: cell-based; details: human respiratory syncytial virus, read-out: NR = Neutral Red cell count EC50
[13] = tested on: RSV; A2; experiment: RSV A2 virus yield
[14] = tested on: RSV; A2; experiment: RSV A2 viral count or plaque reduction; format: cell-based; details: human respiratory syncytial virus, Table 5
[15] = tested on: Flu B; experiment: microbe, parasite or virus in culture; format: cell-based; details: Influenza B virus, read-out: NR = Neutral Red cell count EC50
[16] = tested on: RSV; Long; experiment: RSV Long CPE-inhibition; format: cell-based, Respiratory Syncytial Virus
[17] = tested on: CMV; experiment: microbe, parasite or virus in culture; format: cell-based; details: Human betaherpesvirus 5, read-out: CPE-inhibition EC50
[18] = tested on: uninfected cells

Nc1nc2c(ncn2COCCO)c(=O)[nH]1 [Acyclovir]
EC50 [1]: 0.6 µg/mL (≈ 2.66 µM) | EC50 [2]: 0.2 µg/mL (≈ 0.888 µM) | EC50 [3]: 0.5 µg/mL (≈ 2.22 µM) | EC50 [4]: 0.3 µg/mL (≈ 1.33 µM) | EC50 [5]: 0.06 µg/mL (≈ 0.266 µM)

Cc1cn([C@H]2C[C@H](N=[N+]=[N-])[C@@H](CO)O2)c(=O)[nH]c1=O [AZT, Zidovudine]
EC50 [6]: 0.0001 µg/mL | EC50 ([6]; read-out: CPE-inhibition EC50): 0.37 nM | CC50 ([7]; CC50, parallel to HIV 1 IIIB test, Table 1, standards): 1.17 µg/mL | CC50 ([7]; CPE-inhibition (CC50), parallel to HIV-1 IIIB test, Table 5, Concentrations μM): 4.38 µM

Nc1nc(O)c2ncn(COC(CO)CO)c2n1 [Ganciclovir]
EC50 [8]: 0.6 µg/mL (≈ 2.35 µM) | EC50 [9]: 0.2 µg/mL (≈ 0.784 µM) | CC50 [10]: 0.5 µg/mL (≈ 1.96 µM) | EC50 [11]: 0.1 µg/mL (≈ 0.392 µM)

NC(=O)c1ncn([C@@H]2O[C@H](CO)[C@@H](O)[C@H]2O)n1 [Ribavirin]
EC50 [12]: 1 µg/mL (≈ 4.09 µM) | Virus Yield SI = CC50/EC90 ([13]; RSV, A2): 12 | EC50 ([13]; human respiratory syncytial virus, read-out: Virus Yield EC50): 6 µg/mL (≈ 24.6 µM) | EC90 ([13]; human respiratory syncytial virus, read-out: Virus Yield EC90): 6 µg/mL (≈ 24.6 µM) | EC50 [14]: 2 µg/mL (≈ 8.19 µM) | EC50 [15]: 1.8 µg/mL (≈ 7.37 µM) | CPE-inhibition EC50 [16]: 7 µg/mL | EC50 ([16]; human respiratory syncytial virus): 10 µg/mL (≈ 40.9 µM) | CC50 [7]: > 100 µg/mL | CC50 ([7]; CPE-inhibition (CC50), parallel to CMV CPE-inhibition, Table 6): 118 µg/mL | CC50 ([7]; CPE-inhibition (CC50), parallel to RSV A2 CPE-inhibition): > 1000 µg/mL | CC50 ([7]; NR = Neutral Red cell count (CC50)): 40 µg/mL | CC50 ([7]; Viral count or Plaque Reduction (CC50), parallel to RSV A2 viral count, Table 5): > 1000 µg/mL | CC50 ([7]; Virus Yield (CC50), parallel to RSV A2 virus yield test): 71 µg/mL | EC50 [17]: 25 µg/mL (≈ 102 µM)

poly-L-lysyl [(8-octanamido)-5-acetamido-3,5-dideoxy-2-thio-D-glycero-α-D-galacto-2-nonulopyranosidoic acid]n [BRI 6150]
Virus Yield (CC50) [18]: > 1000 µg/mL
